Source: US9908880B2, “Substituted imidazoquinolines” (4SC AG, priority 2008, dated 2018)

What was measured:
[1] = system: Renca LacZ tumor cell lung metastases; assay: Renca lung metastasis model
Method: In particular, female Balb/c mice (n=10) were treated for 4 consecutive days starting day 1 or day 8 after Renca LacZ tumor cell injection, respectively. The compounds were applied in 20% PEG, ODNs in 0.9% NaCl as indicated. Lungs were excised 25 days after tumor cell injection.
In particular, female Balb/c mice (n=10) were treated for 4 consecutive days starting day 1 or day 8 after Renca LacZ tumor cell injection, respectively. The compounds (small molecules (SMOLs)) were applied in 20% PEG, ODNs in 0.9% NaCl as indicated. Lungs were excised 25 days after tumor cell injection.
Abstract 3552, Proc Am Cancer Res 48, 2007.
In particular, female Balb/c mice (n=10) were treated for 4 consecutive days starting day 1 or day 8 after Renca LacZ tumor cell injection, respectively. The SMOLs were applied in 20% PEG, the oligonucleotides in 0.9% NaCl as indicated. Lungs were excised 25 days after tumor cell injection (see FIG. 4A). Further, female Balb/c mice (n=5) were treated for 4 consecutive days as indicated. The SMOLs were applied in 20% PEG, oligonucleotides in 0.9% NaCl. At day 4 of treatment, blood was collected via orbital plexus and spleens were excised. Subsequently, mRNA was isolated for expression analysis via qPCR. Data were normalized to vehicle control (mean set to 1). Statistical evaluation was performed via Mann-Whitney test (see FIG. 4B). […]

[2] = system: PCIR-1 cells; assay: Cytokine mRNA induction in PCIR-1 human cancer cell line (TaqMan PCR); format: cell-based; conditions: for induction of IP-10: after 15 h
Method: Expression of IL8 mRNA was measured with TaqMan PCR after 16 hours incubation of cells with H2006, LPS or Resiquimod alone and in combination with cloroquine.
Cellular assays using a human cancer cell line (PCIR-1) or human PBMC fractions to test compounds for activating TLR7 are established.
Specificity for TLR7 and 9 was checked by adding chloroquine, which abrogates signaling through endosomal TLRs. The PCIR-1 system is suited for measuring the interferone-linked cytokine IP10 by a bead-based assay in the 384-well format.
TLR mRNA Expression in PCIR-1 (TaqMan PCR Analysis)
Also response to poly I-C double-stranded RNA (TLR 3 ago); 40-fold induction of IP-10 after 15 h) and MALP-2 (TLR 2/6 hetero-dimer ago, 100-fold induction of IP-10 after 15 h) is detected.
In contrast TLR4 signaling by LPS is not affected (FIG. 1).

[3] = system: superficial basal cell carcinomas; conditions: marketed 5% cream (Aldara), topical; cited from earlier work

Q: With `CCc1nc2c(N)nc3ccccc3c2n1CCCCN(C(C)=O)C1CCOC1C` (stereo not drawn) [Example III, 3-{acetyl[4-(4-amino-2-ethyl-1H-imidazo[4,5-c]quinolin-1-yl)butyl]amino}-2,5-anhydro-1,3,4-trideoxypentitol] as the compound, how does the “anti-metastatic effect (clearance of the lungs)” value ([1]; short treatment (d1-4), FIG. 5) read?
A: Its value is “strong anti-metastatic effect with virtually complete clearance of the lungs”.

Q: With `CCN(CC)CCCC(C)Nc1ccnc2cc(Cl)ccc12` (stereo not drawn) [chloroquine] as the compound, how does the “signaling via TLR7 and TLR9 on addition of chloroquine” value ([2]; FIG. 1, IL8 mRNA after 16 hours) read?
A: The value was “completely blocked”.

Q: With `Nc1nc2c(sc(=O)n2[C@@H]2O[C@H](CO)[C@@H](O)[C@H]2O)c(=O)[nH]1` [isatoribine, 7-thia-8-oxoguanosine] as the compound, how does the “emergence of lung metastases” value ([1]; murine Renca lung metastasis model) read?
A: The value was “virtually completely suppressed”.

Q: Which “induction of IP-10” value [2] does the source give for MALP-2 here?
A: Its value is 100 fold.

Q: With `CC(C)Cn1cnc2c(N)nc3ccccc3c21` [Imiquimod, imiquimod] as the compound, how does the “5 year clearance of superficial basal cell carcinomas” value [3] read?
A: The value was “approx 80%”.

Q: With poly I-C as the compound, how does the “induction of IP-10” value [2] read?
A: Its value is 40 fold.
